# Source: patent US6395741B1, “Agent for prophylaxis or treatment of dysuria” (Tanabe Seiyaku Co., Ltd., priority 1998, dated 2002)
# Square brackets hold non-standard residues; d marks the D form. Ends that are not written are not given here. Peptide text beside a SMILES is read from it. Nva = CCC[C@H](N)C(=O)O
# Legend:
# [1] = system: increase in urethral resistance induced by endothelin-1; experiment: Inhibitory activity against the increase in urethral resistance induced by endothelin-1; assay type: in vivo, dog; details: intraduodenal administration 1 mg/kg; endothelin-1 0.4 nmol/kg i.v.; dogs
# Method: Polyethylene tubes were inserted to male adult mongrel dogs which had been fasted overnight (four dogs, weights: 10 to 14 kg), under pentobarbital anesthesia (30 mg/kg, i.v.), at the femoral veins on both sides. The anesthesia was maintained by continuous transfusion of pentobarbital (4.5 mg/kg) from said polyethylene tubes, and the dogs were ventilated by a respirator for animal (20 strokes per minute, 15 ml/kg/ventilation). Then, a polyethylene tube was inserted for administration of a test compound into the duodenum, and the urinary bladder and the proximal urethra were exposed. In order to avoid the urinary backup within the urinary bladder, a polyethylene tube having a silicon tube was inserted at the ureters on both sides, by which a way for excreting the urine from the body was reserved. […] Then, the change in the perfusion pressure (i.e., the change in the urethral resistance, mmHg) caused by the continuous infusion of physiological saline (37° C., 3 ml/hr) through this catheter was recorded on a linearcorder (WR-3701, manufactured by Graphtec Corporation) via a carrier amplifier (AP-621G, manufactured by Nihon Kohden Corporation). […]
# anesthetized dogs = experiment: Urethral resistance increasing activity in the anesthetized dogs; assay type: in vivo, dog
# Method: Polyethylene tubes were inserted to male adult mongrel dogs which had been fasted overnight (four dogs, weights: 10 to 14 kg), under pentobarbital anesthesia (30 mg/kg, i.v.), at the femoral veins on both sides. The anesthesia was maintained by continuous transfusion of pentobarbital (4.5 mg/kg) from said polyethylene tubes, and the dogs were ventilated by a respirator for animal (20 strokes per minute, 15 ml/kg/ventilation). Then, a polyethylene tube was inserted for administration of a test compound into the duodenum, and the urinary bladder and the proximal urethra were exposed. In order to avoid the urinary backup within the urinary bladder, a polyethylene tube having a silicon tube was inserted at the ureters on both sides, by which a way for excreting the urine from the body was reserved. Moreover, in order to determine the ventral and dorsal prostatic urethral resistances, the apex of the urinary bladder was incised, and a 2-hole open-tip catheter (12Fr, manufactured by CLINY) was inserted into the prostatic urethra through the bladder body. Said catheter was ligated at the proximal urethra and the bladder body, and one of the ends thereof was connected with a pressure-transducer and a syringe pump (SP-25, manufactured by Terumo Corporation) via a three-way turncock. Then, the change in the perfusion pressure (i.e., the change in the urethral resistance, mmHg) caused by the continuous infusion of physiological saline (37° C., 3 ml/hr) through this catheter was recorded on a linearcorder (WR-3701, manufactured by Graphtec Corporation) via a carrier amplifier (AP-621G, manufactured by Nihon Kohden Corporation).
# In order to increase the urethral resistance, a solution of phenylephrine (α1 agonist) or endothelin-1 in physiological saline was intravenously administered at a prescribed dose (volume: 0.1 ml/kg) to the dogs when 60 minutes or more elapsed after the above operation.
# [2] = system: smooth muscle of hypertrophied prostatic adenoma; details: Journal of Japanese Urology Society, vol. 84, No. 9, 1993; cited from earlier work
# [3] = system: prostatic contractions induced by endothelin-1; details: JP-A-8-508034; cited from earlier work
compound,measurement,setting,value
"Cc1ccc(-c2c(NS(=O)(=O)c3ccc(C(C)(C)CO)cc3)ncnc2OCCOc2ncc(Br)cn2)cc1.[Na] [test compound, 4-(2-hydroxy-1,1-dimethylethyl)-N-[6-{2-(5-bromopyrimidin-2-yloxy)ethoxy}-5-(4-methylphenyl)pyrimidin-4-yl]benzenesulfonamide sodium salt 1.5 hydrate]",Inhibition of the increase in urethral resistance induced by endothelin-1,[1],completely inhibited
"endothelin-1 (CSCSSLMDKECVYFCHLDIIW; ends and bridges not checked; cysteine pairing not given here; UniProt P05305 53-73, looked up)",Average increase of the urethral resistance relative to phenylephrine at 30 μg/kg,"anesthetized dogs; endothelin-1 0.4 nmol/kg vs phenylephrine 30 μg/kg, i.v., dogs",about 4 times
same,Urethral pressure (increase of the prostatic urethral resistance),"anesthetized dogs; endothelin-1 i.v. 0.05 nmol/kg, anesthetized dogs",2.2 mmHg
same,Urethral pressure (increase of the prostatic urethral resistance),"anesthetized dogs; endothelin-1 i.v. 0.1 nmol/kg, anesthetized dogs",4.5 mmHg
same,Urethral pressure (increase of the prostatic urethral resistance),"anesthetized dogs; endothelin-1 i.v. 0.2 nmol/kg, anesthetized dogs",14.3 mmHg
same,Urethral pressure (increase of the prostatic urethral resistance),"anesthetized dogs; endothelin-1 i.v. 0.4 nmol/kg, anesthetized dogs",18.9 mmHg
same,Urethral pressure (increase of the prostatic urethral resistance),"anesthetized dogs; endothelin-1 i.v. 0.8 nmol/kg, anesthetized dogs",15.4 mmHg
same,Duration of the urethral resistance increasing activity,"anesthetized dogs; i.v., anesthetized dogs, compared with phenylephrine",more long-acting than that of phenylephrine
CNC[C@H](O)c1cccc(O)c1 [phenylephrine],Urethral pressure (increase of the prostatic urethral resistance),"anesthetized dogs; phenylephrine i.v. 0.3 μg/kg, anesthetized dogs",0.8 mmHg
same,Urethral pressure (increase of the prostatic urethral resistance),"anesthetized dogs; phenylephrine i.v. 1 μg/kg, anesthetized dogs",2.1 mmHg
same,Urethral pressure (increase of the prostatic urethral resistance),"anesthetized dogs; phenylephrine i.v. 3 μg/kg, anesthetized dogs",3.3 mmHg
same,Urethral pressure (increase of the prostatic urethral resistance),"anesthetized dogs; phenylephrine i.v. 10 μg/kg, anesthetized dogs",4.6 mmHg
same,Urethral pressure (increase of the prostatic urethral resistance),"anesthetized dogs; phenylephrine i.v. 30 μg/kg, anesthetized dogs",4.9 mmHg
CCC[C@@H]1NC(=O)[C@@H](C(C)C)NC(=O)[C@@H]2CCCN2C(=O)[C@@H](CC(=O)O)NC(=O)[C@@H](Cc2c[nH]c3ccccc23)NC1=O (cyclo([Nva][dW][dD]P[dV])),Inhibition of contractions of the smooth muscle of hypertrophied prostatic adenoma induced by endothelin-1,[2],inhibited
"N-(4-isopropylbenzenesulfonyl)-α-(4-carboxy-2-n-propylphenoxy)-3,4-methylenedioxyphenylacetamide dipotassium salt",Activity of inhibiting the prostatic contractions induced by endothelin-1,[3],shows an activity of inhibiting
